Test results reported in ChEMBL document CHEMBL4145592, “Synthesis of Phosphatidylserine and Its Stereoisomers: Their Role in Activation of Blood Coagulation” (ACS Med Chem Lett, 2018).
The source made the active and inactive calls. The rule behind the calls is not given here.

How the values were obtained:
[1] = target: T1, Coagulation factor VII/tissue factor (Homo sapiens) (UniProt P08709+P13726); test: (§1) Activation of full length recombinant human His-tagged tissue factor expressed in Escherichia coli BL21(DE3)/recombinant factor 7a (unknown origin) assessed as induction of coagulant factor-10a production using S-2765 as substrate measured for 2 mins in presence of phosphatidylcholine by colorimetric method relative to phosphatidylcholine alone
[2] = target: T1, Coagulation factor VII/tissue factor (Homo sapiens); test: as §1, with “method” for “method relative to phosphatidylcholine alone”

Structure (SMILES) | fold change (FC) [1] | Activity [2]
CCCCCCCC/C=C\CCCCCCCC(=O)OC[C@@H](COP(=O)(O)OC[C@H](N)C(=O)O)OC(=O)CCCCCCC/C=C\CCCCCCCC | 2 | –
CCCCCCCC/C=C\CCCCCCCC(=O)OC[C@H](COP(=O)(O)OC[C@H](N)C(=O)O)OC(=O)CCCCCCC/C=C\CCCCCCCC | 6 | –
CCCCCCCC/C=C\CCCCCCCC(=O)OC[C@H](COP(=O)(O)OC[C@@H](N)C(=O)O)OC(=O)CCCCCCC/C=C\CCCCCCCC | – | Active
CCCCCCCC/C=C\CCCCCCCC(=O)OC[C@@H](COP(=O)(O)OC[C@@H](N)C(=O)O)OC(=O)CCCCCCC/C=C\CCCCCCCC | – | inactive
